The text below walks through data of ChEMBL document CHEMBL1201862, “PubChem BioAssay data set” (2004).

Among the test systems are SW-620; OVCAR-3; SR; HL-60; SK-MEL-2; TK-10; UO-31; UACC-62; NCI-H460; NCI-H23; RPMI-8226; MOLT-4; OVCAR-5; SK-OV-3; HOP-92; SF-539; SNB-19; CAKI-1; IGROV-1; HT-29.
What all share (assay): DTP human tumour cell line panel, 48 h

Structures are written as SMILES.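 Method: 48-hour compound exposure of cells in 96-well plates, five concentrations, linear interpolation of endpoints. The concentration for 50% growth inhibition is given as GI50.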 Calls of active or inactive are those of the source. Rule as the data show it: active = GI50 up to about 1.1 µM and inactive = higher. Some results are limits rather than exact numbers.

With `COc1ccc(-c2cs/c(=N\c3ccccc3)n2CCCN(C)C)cc1`, the GI50 in the assay with SW-620 is > 10 µM (inactive); in the assay with OVCAR-3, 17.1 µM (inactive); in the assay with SR, 22.8 µM (inactive); in the assay on HL-60, 5.58 µM (inactive); in the assay with SK-MEL-2, 19.8 µM (inactive); in the assay with TK-10, 14.2 µM (inactive). Also, the GI50 in the assay on UO-31 was 12.4 µM (inactive); in the assay with UACC-62, 15.1 µM (inactive); in the assay on NCI-H460 it was 23.8 µM (inactive); with NCI-H23, 23.1 µM (inactive); in the assay on RPMI-8226, 24.5 µM (inactive); in the assay on MOLT-4, 16.5 µM (inactive). The GI50 in the assay with OVCAR-5 is 14.8 µM (inactive); in the assay with SK-OV-3 it was 15.6 µM (inactive); in the assay on HOP-92, 26.3 µM (inactive); in the assay with SF-539, 13.6 µM (inactive); in the assay with SNB-19, 19.2 µM (inactive); in the assay with CAKI-1, 71.9 µM (inactive).

Take `O=C(Nc1ccc(Cl)c(Cl)c1)C(=O)C(C(=O)c1ccccc1F)C1OC(=O)c2ccccc21` (stereo not drawn): the GI50 in the assay on SW-620 was 23.9 µM (inactive); in the assay on SR, 10.4 µM (inactive); in the assay on IGROV-1, 27.4 µM (inactive); in the assay with HL-60, 14.1 µM (inactive); in the assay with SK-MEL-2, 12.3 µM (inactive); in the assay on TK-10, 38.8 µM (inactive). Moreover, the GI50 with UO-31 was 18.8 µM (inactive); in the assay with UACC-62 it was 14.8 µM (inactive); with NCI-H460 it was 18.6 µM (inactive); in the assay on NCI-H23 it was 28.6 µM (inactive); in the assay on RPMI-8226 it was 18.2 µM (inactive); in the assay with MOLT-4 it was 29.6 µM (inactive). The GI50 in the assay with OVCAR-5 is 49.1 µM (inactive); in the assay with SK-OV-3, 27.7 µM (inactive); in the assay with HOP-92, 51.6 µM (inactive); with SF-539, 11.1 µM (inactive); in the assay with HT-29 it was 34.4 µM (inactive); in the assay with SNB-19, 17.5 µM (inactive). Moreover, the GI50 in the assay on CAKI-1 was 35.2 µM (inactive).

Take `NC(=O)OCC(COc1ccc(Cl)cc1)OC(=O)c1cc([N+](=O)[O-])cc([N+](=O)[O-])c1` (stereo not drawn): the GI50 is 13.2 µM (inactive) with SW-620; > 100 µM (inactive) in the assay on OVCAR-3; > 100 µM (inactive) in the assay on SR; > 100 µM (inactive) with IGROV-1; > 100 µM (inactive) with HL-60; 71.6 µM (inactive) in the assay on SK-MEL-2. Besides, the GI50 is > 100 µM (inactive) with TK-10; > 100 µM (inactive) in the assay with UO-31; > 100 µM (inactive) in the assay with UACC-62; 40.6 µM (inactive) with NCI-H460; > 100 µM (inactive) in the assay with NCI-H23; > 100 µM (inactive) in the assay with RPMI-8226. In addition, the GI50 in the assay with MOLT-4, in the assay on OVCAR-5, with SK-OV-3, in the assay with HOP-92, with SF-539 and in the assay with HT-29 was > 100 µM (inactive) throughout. Also, the GI50 in the assay with SNB-19 and with CAKI-1 was > 100 µM (inactive) each time.

In the case of `COc1nc(N=P(c2ccccc2)(c2ccccc2)c2ccccc2)cc(=O)n1C`, the GI50 is > 100 µM (inactive) in the assay on SW-620; > 100 µM (inactive) in the assay on OVCAR-3; 0.0233 µM (active) in the assay with SR; > 100 µM (inactive) with IGROV-1; > 100 µM (inactive) with HL-60; > 100 µM (inactive) with SK-MEL-2. The GI50 with TK-10, in the assay with UO-31, with UACC-62, with NCI-H460, in the assay on NCI-H23 and in the assay with RPMI-8226 was > 100 µM (inactive) in each case. For the same molecule, the GI50 in the assay on MOLT-4, in the assay with OVCAR-5, in the assay on SK-OV-3, in the assay on HOP-92, in the assay with SF-539 and with HT-29 was > 100 µM (inactive) in each case. In addition, the GI50 in the assay on SNB-19 and in the assay with CAKI-1 was > 100 µM (inactive) in each case.

For the molecule `COc1cc(C(C)c2cc3c(cc2OCCOCCOc2cc4c(cc2C(C)c2cc(OC)c(OC)c(OC)c2)OCO4)OCO3)cc(OC)c1OC` (stereo not drawn), the GI50 with SW-620, in the assay with OVCAR-3, in the assay with SR, with IGROV-1, with HL-60 and in the assay with SK-MEL-2 was > 10 µM (inactive) in each case. The GI50 in the assay with TK-10 was > 10 µM (inactive); in the assay with UO-31 it was 29.7 µM (inactive); in the assay on UACC-62 it was > 10 µM (inactive); in the assay with NCI-H460, > 10 µM (inactive); in the assay with NCI-H23, > 10 µM (inactive); in the assay on RPMI-8226, > 100 µM (inactive). For the same molecule, the GI50 was > 10 µM (inactive) in the assay with MOLT-4; > 10 µM (inactive) in the assay on OVCAR-5; > 10 µM (inactive) in the assay with SK-OV-3; 16.4 µM (inactive) in the assay on HOP-92; > 10 µM (inactive) with SF-539; > 10 µM (inactive) in the assay on HT-29. The GI50 with SNB-19 and in the assay on CAKI-1 was > 10 µM (inactive) in each case.

Regarding `Brc1cc(CCOC2CCCCO2)c(-c2sccc2CCOC2CCCCO2)s1` (stereo not drawn), the GI50 in the assay with SW-620 is > 65.8 µM (inactive); in the assay on OVCAR-3, 71.4 µM (inactive); in the assay on SR, 9.75 µM (inactive); with IGROV-1, 53.2 µM (inactive); with HL-60 it was 17.8 µM (inactive); in the assay on SK-MEL-2 it was 27.4 µM (inactive). Besides, the GI50 in the assay with TK-10 was > 59.6 µM (inactive); in the assay on UO-31, 14 µM (inactive); in the assay on UACC-62, 58.5 µM (inactive); in the assay with NCI-H460 it was 33.4 µM (inactive); in the assay on NCI-H23, 34.7 µM (inactive); with RPMI-8226, 23.9 µM (inactive). The GI50 with MOLT-4 was 22.2 µM (inactive); in the assay on OVCAR-5 it was > 100 µM (inactive); with SK-OV-3 it was > 69.2 µM (inactive); with HOP-92 it was > 65.2 µM (inactive); in the assay with SF-539 it was 55.5 µM (inactive); with HT-29, 61.8 µM (inactive). In addition, the GI50 with SNB-19 was > 100 µM (inactive); with CAKI-1, > 91.4 µM (inactive).

With `CC(C)C1=C(O)C(=O)C2=C(C1=O)C(OC=O)C(O)C1C(C)(C)CCCC21C` (stereo not drawn), the GI50 with SW-620 is 3.1 µM (inactive); in the assay with OVCAR-3, 12.1 µM (inactive); in the assay with SR it was 3 µM (inactive); in the assay with IGROV-1, 10.3 µM (inactive); with HL-60 it was 3.56 µM (inactive); with SK-MEL-2, 12.1 µM (inactive). The GI50 with TK-10 is 13.4 µM (inactive); with UO-31, 5.82 µM (inactive); with UACC-62 it was 6.19 µM (inactive); with NCI-H460 it was 3.22 µM (inactive); with NCI-H23, 7 µM (inactive); in the assay on RPMI-8226 it was 2.66 µM (inactive). For the same molecule, the GI50 in the assay on MOLT-4 was 2.25 µM (inactive); in the assay on OVCAR-5 it was 15.8 µM (inactive); with SK-OV-3, 13.4 µM (inactive); with HOP-92, 7.46 µM (inactive); in the assay on SF-539, 13.7 µM (inactive); in the assay with HT-29 it was 11.2 µM (inactive). Besides, the GI50 in the assay with SNB-19 was 13.4 µM (inactive); in the assay with CAKI-1, 4.04 µM (inactive).

For the molecule `CN(C)CCCNC(=S)S`, the GI50 in the assay with SW-620, with OVCAR-3, in the assay on SR, with IGROV-1, in the assay on HL-60 and with SK-MEL-2 was > 100 µM (inactive) each time. The GI50 in the assay on TK-10, in the assay with NCI-H460, with NCI-H23, in the assay with RPMI-8226, in the assay on MOLT-4 and in the assay on OVCAR-5 was > 100 µM (inactive) throughout. Moreover, the GI50 with SK-OV-3, with HOP-92, with SF-539, with HT-29, with SNB-19 and in the assay with CAKI-1 was > 100 µM (inactive) throughout.

`COC1=CC(=O)[C@@]2(C)C(C)[C@H](c3ccccc3)[C@H]2C1=O` (stereo partly drawn): the GI50 with SW-620, in the assay with OVCAR-3, in the assay on SR, with IGROV-1, in the assay on HL-60 and with SK-MEL-2 was > 100 µM (inactive) throughout. For the same molecule, the GI50 in the assay with TK-10, with UO-31, in the assay on UACC-62, with NCI-H460, with NCI-H23 and in the assay on RPMI-8226 was > 100 µM (inactive) throughout. The GI50 in the assay on MOLT-4, in the assay on OVCAR-5, with SK-OV-3, in the assay with HOP-92, in the assay on SF-539 and in the assay with HT-29 was > 100 µM (inactive) each time. For the same molecule, the GI50 in the assay on SNB-19 and in the assay on CAKI-1 was > 100 µM (inactive) throughout.

`COc1cc(C)c(CC/C(C)=C/Cc2cc(O)ccc2O)c(C)c1C` [PANICEIN A HYDROQUINONE]: the GI50 in the assay with SW-620, with OVCAR-3, in the assay with SR, in the assay with IGROV-1, in the assay with HL-60 and in the assay with SK-MEL-2 was > 25 µM (inactive) each time. Further, the GI50 with TK-10, in the assay on UO-31, in the assay on NCI-H460, in the assay on NCI-H23, in the assay with RPMI-8226 and in the assay with MOLT-4 was > 25 µM (inactive) throughout. Moreover, the GI50 in the assay with SK-OV-3, in the assay on HOP-92, in the assay with SF-539, with HT-29, in the assay with SNB-19 and with CAKI-1 was > 25 µM (inactive) each time.
